Test results: ChEMBL document CHEMBL2016485, “Design and optimization of quinazoline derivatives as melanin concentrating hormone receptor 1 (MCHR1) antagonists: part 2” (Bioorg Med Chem Lett, 2012)
Values after ≈ are worked out from the molar mass of the structure shown.

Experiments:
[1] = Cmax at steady state in diet-induced obese C57BL/6J mouse model plasma at 100 mg/kg, po qd dosed through CMC/Tween 80 suspension for 14 days measured at day 14; format: ADME, organism-based; set-up: dose 100 mg/kg, route oral
[2] = Cmax in mouse at 30 mg/kg, po relative to initial plasma concentration; format: ADME, organism-based; set-up: dose 30 mg/kg, route oral
[3] = AUC at steady state in diet-induced obese C57BL/6J mouse model plasma at 100 mg/kg, po qd dosed through CMC/Tween 80 suspension for 14 days measured at day 14; format: ADME, organism-based; set-up: dose 100 mg/kg, route oral
[4] = AUC (0 to 24 hrs) in rat at 30 mg/kg, po; format: ADME, organism-based; set-up: time < 24 hr, dose 30 mg/kg, route oral; conditions: plasma
[5] = Solubility in fasted state simulated intestinal fluid at pH 6.5 at 0.5 hrs; format: physicochemical
[6] = AUC at steady state in diet-induced obese C57BL/6J mouse model brain at 100 mg/kg, po qd dosed through CMC/Tween 80 suspension for 14 days measured at day 14; format: ADME, organism-based; set-up: dose 100 mg/kg, route oral
[7] = AUC (0 to 24 hrs) in mouse at 30 mg/kg, po; format: ADME, organism-based; set-up: time < 24 hr, dose 30 mg/kg, route oral; conditions: plasma
[8] = Cmax in rat at 30 mg/kg, po relative to initial plasma concentration; format: ADME, organism-based; set-up: dose 30 mg/kg, route oral
[9] = Cmax at steady state in diet-induced obese C57BL/6J mouse model brain at 100 mg/kg, po qd dosed through CMC/Tween 80 suspension for 14 days measured at day 14; format: ADME, organism-based; set-up: dose 100 mg/kg, route oral
[10] = Cmax at steady state in diet-induced obese C57BL/6J mouse model plasma at 30 mg/kg, po bid dosed through micronized suspension for 14 days measured at day 14; format: ADME, organism-based; set-up: dose 30 mg/kg, route oral
[11] = AUC at steady state in diet-induced obese C57BL/6J mouse model plasma at 30 mg/kg, po bid dosed through micronized suspension for 14 days measured at day 14; format: ADME, organism-based; set-up: dose 30 mg/kg, route oral
[12] = Cmax at steady state in diet-induced obese C57BL/6J mouse model brain at 30 mg/kg, po bid dosed through micronized suspension for 14 days measured at day 14; format: ADME, organism-based; set-up: dose 30 mg/kg, route oral
[13] = AUC at steady state in diet-induced obese C57BL/6J mouse model brain at 30 mg/kg, po bid dosed through micronized suspension for 14 days measured at day 14; format: ADME, organism-based; set-up: dose 30 mg/kg, route oral
[14] = AUC (0 to 24 hrs) in dog at 5 mg/kg, po; format: ADME, organism-based, Canis lupus familiaris; set-up: time < 24 hr, dose 5 mg/kg, route oral; conditions: plasma
[15] = Cmax in beagle dog at 6 mg/kg, iv; format: ADME, organism-based, Canis lupus familiaris; set-up: dose 6 mg/kg, route intravenous; conditions: in vivo
[16] = Cmax in dog at 6 mg/kg, iv relative to initial plasma concentration; format: ADME, organism-based, Canis lupus familiaris; set-up: dose 6 mg/kg, route intravenous
[17] = AUC (0 to 24 hrs) in dog at 6 mg/kg, iv; format: ADME, organism-based, Canis lupus familiaris; set-up: time < 24 hr, dose 6 mg/kg, route intravenous; conditions: plasma
[18] = Cmax in dog at 5 mg/kg, po relative to initial plasma concentration; format: ADME, organism-based, Canis lupus familiaris; set-up: dose 5 mg/kg, route oral

Row | AUC(0-t) at 24 h [4] | solubility at 0.5 h [5] | Cmax [8] | Cmax [10] | AUC at 336 h [11] | Cmax [12] | AUC at 336 h [13] | SMILES | also measured
1 | 26.6 µM·h | 1.7 µM (≈ 0.787 µg/mL) | 2.4 µM | – | – | – | – | Cc1nc(N2CCC(O)(C3CC3)CC2)nc2ccc(NC(=O)/C=C/c3ccc(Cl)cc3)cc12 | Cmax [1]: 5.9 µM; Cmax [2]: 2.1 µM; AUC at 336 h [3]: 104 µM·h; AUC at 336 h [6]: 30.2 µM·h; AUC(0-t) at 24 h [7]: 33.4 µM·h; Cmax [9]: 2.1 µM
2 | – | – | – | 16.5 µM | 312 µM·h | 6.3 µM | 104 µM·h | Cc1nc(N2CCC(N3CCOCC3=O)CC2)nc2ccc(NC(=O)/C=C/c3ccc(OC(F)(F)F)cc3)cc12 | –
3 | – | – | – | 17.7 µM | 385 µM·h | 5.6 µM | 95.1 µM·h | Cc1nc(N2CCC(N3CCCC3=O)CC2)nc2ccc(NC(=O)/C=C/c3ccc(OC(F)(F)F)cc3)cc12 | –
4 | – | – | – | 12.7 µM | 284 µM·h | 3.7 µM | 67.6 µM·h | Cc1nc(N2CCC(N3CCOC3=O)CC2)nc2ccc(NC(=O)/C=C/c3ccc(OC(F)(F)F)cc3)cc12 | –
5 | 79.6 µM·h | 11.2 µM | 7.8 µM | – | – | – | – | CS(=O)(=O)O.Cc1nc(N2CCC(O)(C3CC3)CC2)nc2ccc(NC(=O)/C=C/c3ccc(Cl)cc3)cc12 | AUC(0-t) at 24 h [14]: 37.7 µM·h; Cmax [15]: 6.4 µM; Cmax [16]: 9.9 µM; AUC(0-t) at 24 h [17]: 43.5 µM·h; Cmax [18]: 2.5 µM
